The values that follow come from patent US20170224643A1, “METHOD FOR AVOIDING OR INHIBITION OF DYSKINESIA” (Research Foundation of the City University of New York, priority 2016, published 2017).

Entries after “also recorded” stand apart in the source; their conditions may differ.

For series [1], the system named is unilateral 6-OHDA model of LID. Description: unilateral 6-OHDA model of L-Dopa induced dyskinesia, abnormal induced movements (AIMs) scoring. The series is classed as in vivo, mice. The text has this:
(§1) Assessing dopamine hyper-sensitivity in the unilateral 6-OHDA model of LID. The well-established unilateral 6-OHDA model of LIDs was used in which the injection of the neurotoxin results in unilateral DA hypersensitivity due to a greater than 80% DA neuron degeneration, and subsequent dopamine hypersensitivity. Two weeks after 6-OHDA injection, the degree of functional deficits are quantified by assessing contralateral paw use in a “cylinder test” (FIG. 1). In untreated, 6-OHDA injected animals contralateral paw use during rearing at the glass wall is reduced from random (50%, dotted line) due to the dopaminergic lesion and resulting reduced dopamine secretion (FIG. 1, white bars). Upon dopamine substitution by a single dose of L-Dopa contralateral paw use is increased above random (50% dotted line) due to dopamine hypersensitivity that developed in response to reduced dopamine levels (FIG. 1 black bars).
Inhibition of Smo by cyclopamine INCREASES LIDs After the functional assessment of dopaminergic denervation in the 6-OHDA model of LIDS, LIDs are induced by daily injections of L-Dopa (5 mg/kg, IP) for 13 days followed by quantification of dyskinesia. Abnormal movements are assessed for 1 min every 20 min, over a period of 120 min immediately after L-DOPA administration coinciding with the peak of L-Dopa dependent DA release. Abnormal induced movements (AIMs), clearly distinct from natural stereotyped behaviors (i.e., grooming, sniffing, rearing, and gnawing), are classified following a well-established scheme in the field of dyskinesia research into four different subtypes: locomotive (tight contralateral turns), axial (contralateral dystonic posture of the neck and upper body), limb (jerky and fluttering movements of the limb contralateral to the side of the lesion), and orofacial (vacuous jaw movements and tongue protrusions) (Sebastianutto, I., N. Maslava, C. R. Hopkins, and M. A. Cenci, Validation of an improved scale for rating l-DOPA-induced dyskinesia in the mouse and effects of specific dopamine receptor antagonists. Neurobiology of disease, 2016. 96: p. 156-170.). The co-administration of the Smo antagonist cyclopamine (5 mg/kg, IP) together with L-Dopa (5mg/kg, IP) at day 14 results in an approximately 80% increase in LIDs (FIG. 2, black bar) compared to L-Dopa alone (FIG. 2, white bar).
Stimulation of Smo by SAG DECREASES LIDs. Analogous to the experiments testing the inhibition of Smo, the unilateral 6-OHDA model of LIDs was used to test the effect of activating Smo signaling by the agonist SAG (FIG. 5). Two weeks after 6-OHDA injection, LIDs are induced by daily injections of L-Dopa (5 mg/kg, IP) for 16 days. A gradual increase in the display of dyskinesia was observed from day 4 to day 16 (FIG. 5, white bars). Consistent with the hypothesis and conversely to the facilitation of LIDs by the inhibition of Smo signaling, applicant found about a twofold REDUCTION in the display of LIDs upon the co-administration of a L-Dopa dose (5 mg/kg, […] 5, black bar).
Stimulation of Smo by Purmorphamine DECREASES LIDs. Analogous to the experiments testing the inhibition of Smo, the unilateral 6-OHDA model of LIDs was used to test the effect of activating Smo signaling by the agonist Purmorphamine (PUR). Two weeks after 6-OHDA injection, LIDs are induced by daily injections of L-Dopa (5 mg/kg, IP) for 14 days. A gradual increase in the display of dyskinesia was observed from day 4 to day 11 (FIG. 6, white bars). Consistent with the hypothesis and similar to the results with stimulating Smo with SAG and conversely to the facilitation of LIDs by the inhibition of Smo signaling, applicant finds about 40% REDUCTION in the display of LIDs upon the co-administration of a L-Dopa “challenge” dose (20 mg/kg; IP, i.e. 4×the regular dose) together with the Smo agonist Purmorphamine (15 mg/kg, IP) on day 15 (FIG. 6, black bar). […]

Series [2] concerns aphakia mouse line, a genetic model of LID. Description: aphakia mouse model of LID, three paw dyskinesia scoring. The series is classed as in vivo, mice. As to conditions: for effect on AIMs induced by daily L-Dopa: aphakia mouse line. From the text: Inhibition of Smo by cyclopamine in thegenetic “aphakia ” model of dyskinesia INCREASES LIDs. Analogous to the use of the unilateral 6-OHDA model of LID, we tested whether Shh signaling effects the formation and display of LID in an independent, genetic model, the well-studied Aphakia mouse model. […] The hypo-dopaminergic state of these animals is thought to be similar to the dopaminergic state of Parkinson's disease patients. It is well established that these mice readily develop LID upon semi chronic dosing with L-Dopa. […] Daily systemic injections of L-Dopa (20 mg/kg, IP) results in progressive display of 3 paw dyskinesia over 7 days (FIG. 3, white bars. Co-injection of cyclopamine (5 mg/kg, IP) together with L-Dopa (20 mg/kg, IP) on day 8 results in a roughly 3 fold increase in 3-paw dyskinesia compared to day 7 (FIG. 3, see d8, black bar). Further daily co-injections of cyclopamine together with L-Dopa (5 mg/kg, IP and 20 mg/kg, IP, resp.) results in further increases in dyskinesia scores reaching 7 fold the score obtained after 7 days of L-Dopa only dosing (FIG. 3, see d11, black bar compared to d7, white bar).
Stimulation of Smo by SAG in a genetic model of dyskinesia DECREASES LIDs. Analogous to testing the effect of cyclopamine, we used the aphakia mouse line to determine whether stimulation of Shh signaling might reduce the display of established LID. We injected daily for 28 days L-Dopa (20 mg/kg; IP). On day 29 we co-injected SAG (20 mg/kg, IP) together with L-Dopa (20 mg/kg, IP). We scored 3 paw dyskinesia at day 28 (FIG. 9: white bar) and day 29 (FIG. 9: black bar) and find a roughly 2 fold reduction in dyskinesia upon SAG dosing.
Movement disorders: official journal of the Movement Disorder Society, 2015. 30(6): p. 788-95.). Analogous to testing the effects of the stimulation of Smo by SAG in the aphakia mouse model of dyskinesia described above we injected daily L-Dopa (25 mg/kg, IP) for 21 days. All animals developed robust dyskinesia scores. On day 21 animals were randomly assigned into 4 groups.

Series [3] has as its system Shh-nLacZ^C/C/Dat-Cre mice. Description: L-Dopa induced dyskinesia in mice with genetic ablation of Shh from dopamine neurons. The series is classed as in vivo.
Series [4] concerns two models of LID (unilateral 6-OHDA model and aphakia mouse line). The experiment in a line: meta-analysis of dyskinesia measurements across two models of LID, ratio over L-Dopa only controls. The series is classed as in vivo, mice. The conditions noted are these: for effect on dyskinesia (words): 6-OHDA model and aphakia mouse line, compared to controls; for reduction in expression of established dyskinesia over L-Dopa only controls: acute stimulation of Smo, combined across models. The text has this:
Meta-analysis of dyskinesia measurements across two models of LID and three structurally distinct compounds (cyclopamine, SAG, purmorphamine):. A ratiometric expression of LID after treatment with Smo antagonist or agonists over L-Dopa only treated controls allows applicant to present results combined across two distinct models of dyskinesia and three distinct compounds. Setting dyskinesia scores observed in L-Dopa only treated controls as 1 (FIG. 11: dotted line and white bar), we find that inhibition of Smo by cyclopamine results in a 70% INCREASE of dyskinesia (FIG. 11: black bar labeled “a”). Conversely, acute stimulation of Smo by SAG leads to a roughly 2 fold REDUCTION in the expression of established dyskinesia (FIG. 11, black bar labeled “b”) and semi chronic daily dosing with SAG together with L-Dopa (“adjuvants” strategy) leads to about 70% reduction in the formation and display of LIDs (FIG. 11, black bar labeled “c” Consistent and similar to the effect of SAGthe acute stimulation of Smo with Purmorphamine leads to a roughly 2 fold REDUCTION in the display of established LID (FIG. 11, black bar labeled “d”).

The next series concerns Parkinson's Patients. As to conditions: Pahwa et al. 2015; cited from earlier work.
Series [5] relates to unilateral 6-OHDA lesioned animals. The experiment in a line: cylinder test of contralateral paw use after unilateral 6-OHDA lesion. The conditions noted are these: single dose L-Dopa 5 mg/kg IP; random = 50%. The series is classed as in vivo, mice. The method, then:
FIG. 1 depicts assessment of 6-OHDA induced dopaminergic lesion. All animals of cohorts A and B were lesioned unilaterally by stereotactic injection of 6-OHDA into the dorso-lateral striatum. White bars: saline injected, black bars: L-dopa (5 mg/kg, IP) injected. Unilateral striatal 6-OHDA injection results in […] dopamine hypersensitivity. (**=p<0.001, ***=p<0.0001, t-test; n=9-11/treatment group; mean±SEM);
as §1

As for `CNC1CCC(N(Cc2cccc(-c3ccncc3)c2)C(=O)c2sc3ccccc3c2Cl)CC1` (stereo not shown) [SAG], the “LID scores after SAG wash-out” value in series [1] (L-Dopa 5 mg/kg IP daily without SAG, d16 to d34, after 14 days of L-Dopa/SAG) is “indistinguishable from control groups”. Further, the “effect of chronic dosing with SAG together with L-Dopa on AIMs” value in series [1] (SAG as adjuvant to daily L-Dopa) is “reversible, dose dependent build-up of a reduction of abnormal induced movements; also recorded: build-up of a reduction of abnormal induced movements over 7 days”. The reduction of dyskinesia in series [1] (daily SAG 0.8 mg/kg IP with L-Dopa 5 mg/kg IP, day 12) was 45%; in series [1] (daily SAG 2.5 mg/kg with L-Dopa 5 mg/kg IP, 4 days of dosing), 50%; in series [1] (daily SAG 7 mg/kg IP with L-Dopa 5 mg/kg IP, day 4), “about 50%”; in series [1] (daily SAG 7 mg/kg IP with L-Dopa 5 mg/kg IP, day 14), “about 80%”. Moreover, the “reduction of AIMS scores over the control group” value in series [1] (daily SAG 10 mg/kg IP with L-Dopa 5 mg/kg IP for 14 days, day 14) is on record as “greater than 2 fold”. Besides, the “reduction in LIDs compared to controls” value in series [1] (within subject escalation, SAG 15 mg/kg IP, day 51, L-Dopa 20 mg/kg IP) was “greater than 2 fold”. Further, the “reduction in 3 paw dyskinesia” value in series [2] (SAG 20 mg/kg IP with L-Dopa 20 mg/kg IP on day 29, vs day 28) was “roughly 2 fold”. Also, in series [2] (SAG 20 mg/kg IP with L-Dopa 25 mg/kg IP on day 21, compared to controls), the “reduction in the display of LID” value was 2 fold. Besides, the “effect on AIMs induced by daily L-Dopa” value in series [2] is recorded as “decreases abnormal induced movements”. Also, the “reduction of dyskinesia score compared to day 20” value in series [3] (single injection SAG 20 mg/kg IP with L-Dopa on day 22, ratio mutants over controls) is reported as “about 10 fold”. Further, in series [4], the “effect on dyskinesia (words)” value was “decrease dyskinesia; also recorded: delayed and weaker/blunted induction and reduced expression of dyskinesia”. In series [4], the “reduction in expression of established dyskinesia over L-Dopa only controls” value is on record as “roughly 2 fold”. Further, the “reduction in the formation and display of LIDs over L-Dopa only controls” value in series [4] (semi chronic daily dosing with SAG together with L-Dopa) is reported as “about 70%”.

Turning to `CC1=C2C[C@H]3[C@@H](CC=C4C[C@@H](O)CC[C@@]43C)[C@@H]2CC[C@]12O[C@@H]1C[C@H](C)CN[C@H]1[C@H]2C` [cyclopamine], the “effect on AIMs induced by daily L-Dopa” value in series [2] was “increases abnormal induced movements”. Moreover, the “increase in 3-paw dyskinesia” value in series [2] (cyclopamine 5 mg/kg IP with L-Dopa 20 mg/kg IP on day 8, compared to day 7) is “roughly 3 fold”. Also, the “dyskinesia score relative to 7 days of L-Dopa only dosing” value in series [2] (daily cyclopamine 5 mg/kg IP with L-Dopa 20 mg/kg IP, d11 compared to d7) was 7 fold. Besides, the “effect on dyskinesia (words)” value in series [4] is “more rapid induction and stronger expression of dyskinesia”; in series [4] (listed as Cyclopamine) it was “increases dyskinesia”. Besides, the “increase of dyskinesia over L-Dopa only controls” value in series [4] (combined across two models, controls set to 1) is recorded as 70%.

As for `NC12CC3CC(CC(C3)C1)C2` [Amantadine], the “reduction of LID” value in series [2] (amantadine 40 mg/kg IP with L-Dopa 25 mg/kg IP on day 21, did not reach significance) is listed as “roughly 30%”. In addition, in the series on Parkinson's Patients, the inhibition of dyskinesia was 23%.

`N[C@@H](Cc1ccc(O)c(O)c1)C(=O)O` [L-Dopa]: the “increase in LID scores” value in series [1] (daily L-Dopa ramped up to 20 mg/kg IP, day 34 compared to day 27) is given as 3 fold. For the same compound, the “formation of LID” value in series [3] (daily L-Dopa 10 mg/kg IP, 16 days, mutants, not in litter controls) is “formation of LID over time”. Moreover, the “contralateral paw use during rearing” value in series [5] is more than 50%.

Consider `c1ccc2c(Oc3nc(Nc4ccc(N5CCOCC5)cc4)c4ncn(C5CCCCC5)c4n3)cccc2c1` [Purmorphamine], for which the “reduction in the display of LIDs” value in series [1] (Purmorphamine 15 mg/kg IP with L-Dopa challenge dose 20 mg/kg IP on day 15) was “about 40%”. In addition, the “reduction of AIMs” value in series [1] (single dose Purmorphamine 15 mg/kg IP co-injected with L-Dopa 20 mg/kg IP after daily L-Dopa 5 mg/kg IP) was 2 fold. In series [4], the “effect on dyskinesia (words)” value is recorded as “decrease dyskinesia” and the “reduction in expression of established dyskinesia over L-Dopa only controls” value was “roughly 2 fold”. For the same compound, in series [4] (listed as purmorphamine), the “effect on dyskinesia (words)” value is “delayed and weaker/blunted induction and reduced expression of dyskinesia”.
